Test results: US20190233899A1, “METHODS FOR SELECTING TREATMENT REGIMENS AND PREDICTING OUTCOMES IN CANCER PATIENTS” (BIOMEDICA DIAGNOSTICS INC., priority 2002, published 2019)

Legend:
[1] = First study: Cox proportional hazards analysis of disease-free survival in primary breast cancer patients (n = 761, Munich); type: in vivo, human; conditions: primary breast cancer n = 761, median follow-up 48 months; therapy yes vs no
Excerpt: The first study evaluated the clinical relevance of the combination of uPA and PAI-1 in 761 individual primary breast cancer patients (Table 3). Patients either underwent a modified radical mastectomy (n=389) or breast conserving surgery with subsequent breast irradiation (n=372) at the Department of Obstetrics and Gynecology, Technical University of Munich, Germany, between 1987 and 1998. Informed consent for analysis of tumor biological factors was obtained at primary surgery. Therapy decisions were based solely on consensus recommendations at the time but not on uPA and PAI-1. For 745 patients, information on adjuvant systemic therapy was available (Table 3). Median age of the patients at time of primary surgery was 56 years (range: 28-92 years). […] In addition to the collective as a whole, the subset of node-negative patients without adjuvant systemic therapy (n=269; median follow-up 60 months) was analyzed separately (Table 3). […]
In studies involving patients from Munich, uPA and PAI-1 antigen have been prospectively measured by ELISA (uPA: Imubind #894. PAI-1: Imubind #821; both from American Diagnostica Inc., Greenwich, Conn.) since 1987 in all primary breast cancer patients treated at our institution. […] The antigen levels in detergent extracts of breast cancer tissue are expressed as ng of analyte per mg of tissue protein. […]

[2] = Second study: Cox proportional hazards analysis of disease-free survival stratified by data set, primary breast cancer patients (Munich and Rotterdam, n = 3424); type: in vivo, human; conditions: for Hazard ratio (95% Confidence interval), multivariate Cox model (DFS), main effect: yes (1) vs. no (0)
Excerpt: The second study involved a total of 3424 primary breast cancer patients from two different data sets. One set was collected from the Department of Obstetrics and Gynecology, Technical University of Munich, Germany, and the other was from the Department of Medical Oncology, Rotterdam Cancer Institute and University Hospital Rotterdam, the Netherlands. Patients had been treated for primary breast cancer between 1987 and 1999. Treatment decisions with regard to primary surgery and adjuvant systemic therapy were based primarily on consensus recommendations at the time. Treatment strategies differed between Munich and Rotterdam, particularly regarding administration of adjuvant systemic therapy to node-positive patients (Table 4b) (Harbeck et al., 2002, J. Clin. Oncology 20:1000-1009; Foekens et al., 2000, Cancer Res. 60:636-643). Of those patients treated by adjuvant chemotherapy, the majority received CMF (Rotterdam: 76%, Munich: 65%); about one-fifth in both collectives received anthracycline-containing regimens (Rotterdam: 24%, Munich: 21%); and the rest of the Munich patients were treated by other chemotherapy regimens. The endocrine treatment used in both collectives was tamoxifen.
Median age of the patients at time of primary surgery was 56 years (range: 22-94 years). Both data sets contained established clinical and histo-morphological factors such as number of involved axillary lymph nodes, pT stage, estrogen receptor status, progesterone receptor status, exposure to adjuvant chemotherapy (CT), adjuvant endocrine therapy (HT), or adjuvant radiotherapy (RT), as well as uPA and PAI-1 measurements. Since the scoring systems for assessment of grade differed substantially between the centers and could thus represent different biological tumor characteristics, grade was not included in the combined stratified analysis. The variables were re-coded as described below in Section 6.1.3. Patients with an uncertain number of affected lymph nodes were included for computing the univariate distributions of ranked variables but not in multivariate survival analysis. Forty-five Rotterdam patients with an uncertain number of affected lymph nodes and three Munich patients with missing information on chemotherapy were not included. At the time of primary therapy, no patient had any clinical or radiological evidence of distant metastases. Follow-up data were obtained at regular intervals. Median follow-up time of all patients still alive at time of analysis was 83 months (range: 1-183 months). Within the follow-up period, 1319 patients (39%) experienced disease recurrence and 1200 patients (35%) died.
In studies involving patients from Munich, uPA and PAI-1 antigen have been prospectively measured by ELISA (uPA: Imubind #894. PAI-1: Imubind #821; both from American Diagnostica Inc., Greenwich, Conn.) since 1987 in all primary breast cancer patients treated at our institution. (Jänicke et al., 1994, Cancer Res. 54: 2527-2530). The antigen levels in detergent extracts of breast cancer tissue are expressed as ng of analyte per mg of tissue protein. In the study involving Rotterdam patients, uPA and PAI-1 antigen were measured by ELISA, employing the same antibodies as above, in cytosol preparations of the primary tumor as described by Foekens et al., 2000, Cancer Res., 60:636-643.
Due to differences in measurement techniques between the Munich and Rotterdam data sets, data re-coding was required. For the laboratory measurements of uPA, PAI-1, Estrogen receptor, and progesterone receptor, fractional ranks were computed with respect to each distribution. Fractional ranks also keep the variables on a convenient scale from zero to one, thus facilitating comparison of the […] coefficients of different factors. In particular, ranked estrogen receptor and progesterone receptor measurements were included as continuous variables in the statistical models, even though biochemical and immunohistochemical assays were used. […]

SMILES: CC/C(=C(\c1ccccc1)c1ccc(OCCN(C)C)cc1)c1ccccc1 [Adjuvant endocrine therapy, tamoxifen]
- Disease-free survival (DFS) multivariate Relative risk (95% Confidence interval) [1]: 0.5 (0.3-0.7)
- HR (DFS) of therapy, separate Cox model ([2]; 0-3 affected lymph nodes, high-uPA/PAI-1 subgroup n=1174): 0.51 (0.33-0.78)
- 95% CI for the HR (DFS) of therapy, separate Cox model ([2]; 0-3 affected lymph nodes, low-uPA/PAI-1 group n=1418, not significant): 0.59-1.44
- HR (DFS) of therapy, separate Cox regression (2-stage model) ([2]; 4 or more affected nodes, low-uPA/PAI-1 subgroup): 0.62 (95% CI, 0.43-0.90)
- HR (DFS) of therapy, separate Cox regression model ([2]; 4 or more nodes, high uPA/PAI-1): 0.68 (95% CI, 0.49-0.95)
- Hazard ratio (95% Confidence interval), multivariate Cox model (DFS), main effect ([2]; all patients n = 3,376): 0.68 (0.56-0.82)
- Hazard ratio (95% Confidence interval), multivariate Cox model (DFS), main effect ([2]; all patients n = 3,376, listed as HT): 0.68
- HR (DFS) due to therapy, separate multivariate Cox model ([2]; all patients, high-uPA/PAI-1 subgroup): 0.63
- HR (DFS) due to therapy, separate multivariate Cox model ([2]; all patients, low-uPA/PAI-1 subgroup): 0.74
- 95% CI for HR of interaction HT with uPA/PAI-1 (DFS) ([2]; all patients, no significant interaction): 0.66-1.28
- Hazard ratio (95% Confidence interval), multivariate Cox model (DFS), main effect ([2]; patients with 0-3 involved axillary nodes n = 2592): 0.66 (0.48-0.90)
- Hazard ratio (95% Confidence interval), multivariate Cox model (DFS), main effect ([2]; patients with 4 or more involved axillary nodes n = 784): 0.68 (0.53-0.87)
